According to article PMC7400437, “Synthesis and Evaluation of the Antibacterial Activities of 13-Substituted Berberine Derivatives” (Antibiotics, 2020):
Where two headings read alike, the source gives them in different places.

Assays:
S. aureus = assay: MIC, antimicrobial activity assay; format: cell-based, Staphylococcus aureus (ATCC 6538P); conditions: Staphylococcus aureus
B. subtilis = assay: MIC, antimicrobial activity assay; format: cell-based, Bacillus subtilis (ATCC 6633); conditions: Bacillus subtilis
E. coli = assay: MIC, antimicrobial activity assay; format: cell-based, Escherichia coli (ATCC 8739); conditions: Escherichia coli
P. aeruginosa = assay: MIC, antimicrobial activity assay; format: cell-based, Pseudomonas aeruginosa (ATCC 9027); conditions: Pseudomonas aeruginosa
M. smegmatis = assay: microbe, parasite or virus in culture; format: cell-based, Mycobacterium smegmatis (mc2155, ATCC 700084); conditions: Mycolicibacterium smegmatis, 72 h, read-out: Minimal Inhibitory Concentration (MIC) M. smegmatis
C. albicans = assay: MIC, antifungal activity assay; format: cell-based, Candida albicans (DSM 10697); conditions: Candida albicans; Table 1 first screening; 35 °C, 24 h; read-out: Minimal Inhibitory Concentration (MIC) C. albicans
[1] = tested on: BEAS (human airway epithelial cells); assay: Cytotoxic assay on human cells (resazurin); format: cell-based; conditions: Epithelial cell, 48 h, means +/−SD, read-out: Inhibitory Concentration 50 (IC50) on cell viability, BEAS
Method: (§1) The toxicity of berberine and berberine’s derivatives on human cells was evaluated using resazurin assay as previously described. Human cells used were BEAS (ATCC CRL-9609), Caco2 (ATCC HTB-37) and HepG2 (ATCC HB-8065) corresponding respectively to human airway epithelial cells, intestinal epithelial cells and liver cells. Cells were cultured in Dulbecco’s modified essential medium (DMEM) supplemented with 10% fetal bovine serum (FBS), 1% L-glutamine and 1% antibiotics (Thermo Fisher Scientific, Illkirch-Graffenstaden, France). Cells were routinely grown on 25 cm^2 flasks and maintained in a 5% CO2 incubator at 37 °C. For toxicity assay, cells were detached using trypsin–EDTA solution (Thermo Fisher Scientific), counted using Mallasez counting chamber and seeded into 96-well cell culture plates (Greiner bio-One, Dominique Dutscher, Brumath, France) at approximately 10,000 cells per well. The cells were left to grow for 48–72 h at 37 °C in a 5% CO2 incubator until they reached confluence. Media from wells was then aspirated and cells were treated with 100 µL of culture media containing increasing concentrations of berberine or berberine’s derivatives obtained by serial dilution (from 0 to 50 µM, 1:2 dilution), DMSO (0.5% DMSO final concentration) was used as negative control. After 48 h incubation at 37 °C in a 5% CO2 incubator, cell viability was evaluated using resazurin based in vitro toxicity assay kit (Sigma-Aldrich) following manufacturer’s instructions. Briefly, cell wells were emptied, and cells were treated with 100 µL of resazurin diluted 1:10 in sterile PBS containing calcium and magnesium (PBS^++, pH 7.4). After 4 h incubation at 37 °C, fluorescence intensity (excitation wavelength of 530 nm/emission wavelength of 590 nm) was measured using Synergy Mx microplate reader (Biotek). The fluorescence values were normalized by the controls (DMSO treated cells) and expressed as percent viability. The IC50 values of berberine and berberine’s derivatives on cell viability (i.e., the concentration of derivative causing a reduction of 50% of the cell viability) were calculated using GraphPad® Prism 7 software (San Diego, CA, USA). t-Test and two ways ANOVA analyses were used to address the significant differences between mean values with significance set at p < 0.05.

[2] = tested on: Caco2 (human intestinal epithelial cells); assay: Cytotoxic assay on human cells (resazurin); format: cell-based; conditions: for IC50: Homo sapiens, Caco-2, 48 h, read-out: Inhibitory Concentration 50 (IC50) on cell viability, Caco2; for therapeutic index Caco2: IC50 on Caco2 divided by MIC on S. aureus
Method: as §1

[3] = tested on: HepG2 (human liver cells); assay: Cytotoxic assay on human cells (resazurin); format: cell-based; conditions: HepG2, 48 h, read-out: Inhibitory Concentration 50 (IC50) on cell viability, HEPG2
Method: as §1

[4] = tested on: selected relevant microorganisms; assay: Antimicrobial activity, overall statement (active/inactive); format: cell-based
A. gandavensis = assay: MIC, antimicrobial activity assay; format: cell-based, Arthrobacter gandavensis (DSM 2447); conditions: Arthrobacter gandavensis; Table 4, Gram-positive
B. cereus = assay: MIC, antimicrobial activity assay; format: cell-based; conditions: Bacillus cereus; Table 4, Gram-positive
[5] = tested on: B. subtilis (Nisin-resistant); assay: MIC, antimicrobial activity assay; format: cell-based, nisin-resistant B. subtilis (DSMZ 347); conditions: Bacillus subtilis, read-out: MIC B. subtilis (Nisin-resistant)
C. difficile = assay: MIC, antimicrobial activity assay; format: cell-based, Clostridium difficile (DSM 1296); conditions: Clostridioides difficile; Table 4, Gram-positive; anaerobic
C. perfringens = assay: microbe, parasite or virus in culture; format: cell-based, Clostridium perfringens (ATCC 13124); conditions: Clostridium perfringens, read-out: MIC C. perfringens
[6] = tested on: E. faecalis (Vancomycin-resistant); assay: MIC, antimicrobial activity assay; format: cell-based, vancomycin-resistant Enterococcus faecalis (DSMZ 13591); conditions: Enterococcus faecalis, read-out: MIC E. faecalis (Vancomycin-resistant)
L. lactis = assay: MIC, antimicrobial activity assay; format: cell-based, Lactococcus lactis (DSM 20481); conditions: Lactococcus lactis; Table 4, Gram-positive
[7] = tested on: S.aureus (Methicillin-resistant); assay: MIC, antimicrobial activity assay; format: cell-based; conditions: Staphylococcus aureus, read-out: MIC S.aureus (Methicillin-resistant)
S. pyogenes = assay: MIC, antimicrobial activity assay; format: cell-based, Streptococcus pyogenes (DSM 20565); conditions: Streptococcus pyogenes; Table 4, Gram-positive; anaerobic
A. baumannii = assay: MIC, antimicrobial activity assay; format: cell-based, Acinetobacter baumannii (CIP 110431); conditions: Acinetobacter baumannii; Table 4, Gram-negative
C. farmer = assay: MIC, antimicrobial activity assay; format: cell-based, Citrobacter farmeri (ATCC 51633); conditions: Citrobacter farmeri; Table 4, Gram-negative
C. rodentium = assay: MIC, antimicrobial activity assay; format: cell-based, Citrobacter rodentium (ATCC 51116); conditions: Citrobacter rodentium; Table 4, Gram-negative
H. pylori = assay: MIC, antimicrobial activity assay; format: cell-based, Helicobacter pylori (ATCC 43504); conditions: Helicobacter pylori; Table 4, Gram-negative; microaerobic
K. pneumonia = assay: MIC, antimicrobial activity assay; format: cell-based, Klebsiella pneumoniae (DSMZ 26371); conditions: Klebsiella pneumoniae; Table 4, Gram-negative
[8] = tested on: P. aeruginosa (Quinolone-resistant); assay: MIC, antimicrobial activity assay; format: cell-based; conditions: Pseudomonas aeruginosa, read-out: MIC P. aeruginosa (Quinolone-resistant)
S. enterica = assay: MIC, antimicrobial activity assay; format: cell-based, Salmonella enterica (CIP 80.39); conditions: Salmonella enterica; Table 4, Gram-negative
S. flexneri = assay: MIC, antimicrobial activity assay; format: cell-based, Shigella flexneri (ATCC 12022); conditions: Shigella flexneri; Table 4, Gram-negative
V. diabolicus = assay: MIC, antimicrobial activity assay; format: cell-based; conditions: Vibrio diabolicus; Table 4, Gram-negative
V. alginolyticus = assay: MIC, antimicrobial activity assay; format: cell-based, Vibrio alginolyticus (DSM 2171); conditions: Vibrio alginolyticus; Table 4, Gram-negative
[9] = Table 1 first screening, read-out: Minimal Inhibitory Concentration (MIC) S. aureus
[10] = Table 1 first screening, read-out: Minimal Inhibitory Concentration (MIC) B. subtilis
[11] = Table 1 first screening, read-out: Minimal Inhibitory Concentration (MIC) E. coli
[12] = Table 1 first screening, read-out: Minimal Inhibitory Concentration (MIC) P. aeruginosa
[13] = Table 4, Gram-positive, read-out: MIC S. aureus
[14] = Table 4, Gram-positive, read-out: MIC B. subtilis
[15] = Table 4, Gram-negative, read-out: MIC E. coli
[16] = Table 4, Gram-negative, read-out: MIC P. aeruginosa

Structure (SMILES)	MIC (S. aureus; [9]) [µM]	MIC (B. subtilis; [10]) [µM]	MIC (E. coli; [11]) [µM]	MIC (P. aeruginosa; [12]) [µM]	MIC (M. smegmatis) [µM]	MIC (C. albicans) [µM]	IC50 [1] [µM]	IC50 [2] [µM]	IC50 [3] [µM]	MIC (S. aureus; [13]) [µM]	MIC (B. subtilis; [14]) [µM]	MIC (E. coli; [15]) [µM]	MIC (P. aeruginosa; [16]) [µM]	MIC (A. gandavensis) [µM]	MIC (B. cereus) [µM]	MIC [5] [µM]	MIC (C. difficile) [µM]	MIC (C. perfringens) [µM]	MIC [6] [µM]	MIC (L. lactis) [µM]	other results
COc1ccc2cc3[n+](cc2c1OC)CCc1cc2c(cc1-3)OCO2 [Berberine]	> 100	> 100	> 100	> 100	100	100	40.5 ± 5.4	21.6 ± 2.7	> 50												antimicrobial activity (active/inactive) [4]: low to no antimicrobial activity
COc1ccc2c(CC(=O)c3ccc(OC(=O)c4ccccc4)cc3OC(=O)c3ccccc3)c3[n+](cc2c1OC)CCc1cc2c(cc1-3)OCO2 [Compound 17, 4-[2-(Berberin-13-yl)acetyl]-3-(benzoyloxy)phenyl Benzoate]	6.25 to 12.5	12.5	> 100	> 100	100	25	42.4 ± 9.8	> 50	> 50	6.25	12.5	> 100	> 100	12.5	25	12.5 to 25	100	50	25	3.12 to 6.25	MIC [7]: 25 µM; MIC (S. pyogenes): 25 µM; MIC (A. baumannii): > 100 µM; MIC (C. farmer): > 100 µM; MIC (C. rodentium): > 100 µM; MIC (H. pylori): 6.25 to 12.5 µM; MIC (K. pneumonia): > 100 µM; MIC [8]: > 100 µM; MIC (S. enterica): > 100 µM; MIC (S. flexneri): > 100 µM; MIC (V. diabolicus): > 100 µM; MIC (V. alginolyticus): 1.5 to 3.12 µM; therapeutic index Caco2 [2]: 8.54
COc1ccc2c(Cc3ccc(/C=C/C(=O)NCCc4ccc(S(N)(=O)=O)cc4)cc3)c3[n+](cc2c1OC)CCc1cc2c(cc1-3)OCO2 [Compound 23, (2E)-3-{4-[(Berberin-13-yl)methyl]phenyl}-N-[2-(4-sulfamoylphenyl)ethyl]prop-2-enamide]	6.25	25	> 100	> 100	25	100	> 50	> 50	> 50	6.25	25	> 100	> 100	50	12.5	25	50	50	100	6.25	MIC [7]: 12.5 µM; MIC (S. pyogenes): 6.25 µM; MIC (A. baumannii): > 100 µM; MIC (C. farmer): > 100 µM; MIC (C. rodentium): > 100 µM; MIC (H. pylori): 6.25 µM; MIC (K. pneumonia): > 100 µM; MIC [8]: > 100 µM; MIC (S. enterica): > 100 µM; MIC (S. flexneri): > 100 µM; MIC (V. diabolicus): > 100 µM; MIC (V. alginolyticus): 6.25 µM; therapeutic index Caco2 [2]: 12.40
COc1ccc2c(=O)cc(-c3ccc(Cc4c5[n+](cc6c(OC)c(OC)ccc46)CCc4cc6c(cc4-5)OCO6)cc3)oc2c1 [Compound 26, 2-{4-[(Berberin-13-yl)methyl]phenyl}-7-methoxy-4H-chromen-4-one]	12.5	50	> 100	> 100	50	100	> 50	> 50	> 50	12.5	50	> 100	> 100	12.5	50	50	> 100	> 100	> 100	6.25 to 12.5	MIC [7]: 25 µM; MIC (S. pyogenes): 25 µM; MIC (A. baumannii): > 100 µM; MIC (C. farmer): > 100 µM; MIC (C. rodentium): > 100 µM; MIC (H. pylori): 50 µM; MIC (K. pneumonia): > 100 µM; MIC [8]: > 100 µM; MIC (S. enterica): > 100 µM; MIC (S. flexneri): > 100 µM; MIC (V. diabolicus): > 100 µM; MIC (V. alginolyticus): 50 µM; therapeutic index Caco2 [2]: 20.24
